Data taken from US8039586B1, “Cerebral organic anion transporter and its gene” (J-Pharma Co., Ltd., priority 1998, dated 2011).
Read-outs that look alike come from different tables or passages of the source.

T1: rat OAT3 (rk1411) (Rattus norvegicus, UniProt Q9R1U7)
T1 construct: cRNA (RNA complementary to cDNA) was prepared in vitro from the plasmid carrying the clone (rk1411); expressed in transfected cells; host or cells: Xenopus oocytes injected with rk1411 cRNA
T1 sequence (Q9R1U7 1-536): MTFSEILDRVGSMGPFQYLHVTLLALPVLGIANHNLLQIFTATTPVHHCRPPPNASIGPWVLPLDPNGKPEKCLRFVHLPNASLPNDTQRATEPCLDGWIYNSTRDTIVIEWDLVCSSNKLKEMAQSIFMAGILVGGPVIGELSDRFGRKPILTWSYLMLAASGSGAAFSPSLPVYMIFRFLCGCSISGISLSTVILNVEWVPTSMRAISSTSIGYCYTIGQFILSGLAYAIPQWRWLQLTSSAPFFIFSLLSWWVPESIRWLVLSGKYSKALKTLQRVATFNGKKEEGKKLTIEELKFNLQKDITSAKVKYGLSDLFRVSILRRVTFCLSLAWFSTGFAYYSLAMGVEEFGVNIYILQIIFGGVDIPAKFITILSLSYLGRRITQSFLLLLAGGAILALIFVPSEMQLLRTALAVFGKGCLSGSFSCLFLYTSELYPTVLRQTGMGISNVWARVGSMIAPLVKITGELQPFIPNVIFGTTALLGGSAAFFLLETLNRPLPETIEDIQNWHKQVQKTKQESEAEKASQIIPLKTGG

T2: hOAT3 (Homo sapiens, UniProt Q8TCC7)
T2 construct: cRNA (RNA complementary to cDNA) was prepared in vitro from the plasmid comprising the hOAT3 recovered above; expressed in transfected cells; host or cells: Xenopus oocytes injected with hOAT3 cRNA
T2 sequence (Q8TCC7 1-542 K271E/D366H): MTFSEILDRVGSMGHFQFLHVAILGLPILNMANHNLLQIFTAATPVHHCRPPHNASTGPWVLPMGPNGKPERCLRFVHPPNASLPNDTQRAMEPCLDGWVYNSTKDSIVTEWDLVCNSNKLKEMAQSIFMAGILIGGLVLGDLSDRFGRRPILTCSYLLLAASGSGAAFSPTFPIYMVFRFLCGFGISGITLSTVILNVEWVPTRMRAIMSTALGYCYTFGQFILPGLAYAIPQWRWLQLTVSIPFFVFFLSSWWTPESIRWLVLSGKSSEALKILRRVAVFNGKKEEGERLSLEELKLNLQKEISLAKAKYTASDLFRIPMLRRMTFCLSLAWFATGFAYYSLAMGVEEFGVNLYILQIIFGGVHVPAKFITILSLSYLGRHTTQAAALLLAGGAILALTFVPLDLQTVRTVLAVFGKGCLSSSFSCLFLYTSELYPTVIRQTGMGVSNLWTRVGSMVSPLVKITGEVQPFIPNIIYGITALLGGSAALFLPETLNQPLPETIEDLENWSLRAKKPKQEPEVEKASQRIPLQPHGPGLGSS

T3: hOAT3 (Homo sapiens, UniProt Q8TCC7, D366H/K271E)
T3 sequence (Q8TCC7 1-542 K271E/D366H): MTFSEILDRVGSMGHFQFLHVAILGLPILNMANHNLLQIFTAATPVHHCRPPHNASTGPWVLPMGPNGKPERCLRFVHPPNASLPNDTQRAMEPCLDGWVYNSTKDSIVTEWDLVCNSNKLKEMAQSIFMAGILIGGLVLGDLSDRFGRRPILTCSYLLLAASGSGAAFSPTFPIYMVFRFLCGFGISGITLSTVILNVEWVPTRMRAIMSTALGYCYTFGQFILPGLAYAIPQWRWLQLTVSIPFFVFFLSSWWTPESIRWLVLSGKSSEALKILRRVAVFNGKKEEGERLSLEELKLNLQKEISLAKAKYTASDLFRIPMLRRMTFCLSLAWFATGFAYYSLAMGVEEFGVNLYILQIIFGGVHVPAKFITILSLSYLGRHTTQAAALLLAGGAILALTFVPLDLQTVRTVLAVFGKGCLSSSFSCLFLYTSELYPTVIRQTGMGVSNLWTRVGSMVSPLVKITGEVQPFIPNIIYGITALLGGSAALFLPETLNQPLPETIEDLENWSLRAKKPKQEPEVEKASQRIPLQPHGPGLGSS


Columns and labels:
rat OAT3 (rk1411) = target: T1, rat OAT3 (rk1411); experiment: Michaelis-Menten dynamic test of organic anion transport with rk1411 in oocyte; assay type: cell-based; settings: transport by rk1411 (rat OAT3) in Xenopus oocyte, FIG. 2, read-out: Km
From the text: The organic anion transport with rk1411 was subjected to the Michaelis-Menten dynamic test.

hOAT3 [1] = target: T2, hOAT3; experiment: Uptake of radiolabeled compounds by Xenopus oocyte injected with hOAT3 cRNA; assay type: cell-based; settings: substrate 50 nM; one hour; versus control oocyte
Procedure: By using T7 RNA polymerase, cRNA (RNA complementary to cDNA) was prepared in vitro from the plasmid comprising the hOAT3 recovered above by the method by Sekine, et al. (see Sekine, T., et al. J. Biol. Chem., Vol. 272, pp. 18526-9, 1997).
According to the already reported method of Sekine, et al. (Sekine, T., et al. J. Biol. Chem., Vol. 272, pp. 18526-9, 1997), the resulting hOAT3 cRNA was injected in the Xenopus oocyte; the oocyte was subjected to an uptake test with various radiolabeled organic anions and organic cations. The control oocyte cell (oocyte cell with no injection of hOAT3 cRNA) and the oocyte cell injected with hOAT3 cRNA were cultured in a buffer containing the following radiolabels for one hour, to assay the uptake of the radiolabels into the oocytes.
In each figure, open column expresses the case of the control oocyte used; and closed column expresses the case of the oocyte injected with hOAT3 cRNA.

hOAT3 [2] = target: T3, hOAT3; settings: transport by hOAT3 in Xenopus oocyte
From the text: Then, the hOAT3 transport of organic anions was examined at the Michaelis-Menten kinetic test.

hOAT3 [3] = target: T3, hOAT3; experiment: Inhibition of 3H-estrone sulfate uptake in oocyte injected with hOAT3 cRNA; assay type: cell-based; design: cRNA (RNA complementary to cDNA) was prepared in vitro from the plasmid comprising the hOAT3 recovered above; expressed in transfected cells; host or cells: Xenopus oocytes injected with hOAT3 cRNA; settings: 50 nM 3H-estrone sulfate; non-radiolabeled compound at 500 μM or the concentration shown in FIG. 19; one hour
[4] = substrate: CN(Cc1cnc2nc(N)nc(N)c2n1)c1ccc(C(=O)N[C@@H](CCC(=O)O)C(=O)O)cc1; experiment: cells, lysate or membranes; settings: other: transport by hOAT3 in Xenopus oocyte

Molecule | Km (rat OAT3 (rk1411); listed as Estrone sulfate) [µM] | Km (rat OAT3 (rk1411)) [µM] | uptake of radiolabeled compound by oocyte with hOAT3 expression (hOAT3 [1]) | Km (hOAT3 [2]) [µM] | inhibition of the transport of 3H-estrone sulfate with hOAT3 (hOAT3 [3]) | Km [4] [µM]
estrone sulfate | 2.34 ± 0.2 | 2.3 | takes up | 3.08 | significantly inhibited | –
hOAT3 (Homo sapiens; D366H/K271E) (protein) MTFSEILDRVGSMGHFQFLHVAILGLPILNMANHNLLQIFTAATPVHHCRPPHNASTGPWVLPMGPNGKPERCLRFVHPPNASLPNDTQRAMEPCLDGWVYNSTKDSIVTEWDLVCNSNKLKEMAQSIFMAGILIGGLVLGDLSDRFGRRPILTCSYLLLAASGSGAAFSPTFPIYMVFRFLCGFGISGITLSTVILNVEWVPTRMRAIMSTALGYCYTFGQFILPGLAYAIPQWRWLQLTVSIPFFVFFLSSWWTPESIRWLVLSGKSSEALKILRRVAVFNGKKEEGERLSLEELKLNLQKEISLAKAKYTASDLFRIPMLRRMTFCLSLAWFATGFAYYSLAMGVEEFGVNLYILQIIFGGVHVPAKFITILSLSYLGRHTTQAAALLLAGGAILALTFVPLDLQTVRTVLAVFGKGCLSSSFSCLFLYTSELYPTVIRQTGMGVSNLWTRVGSMVSPLVKITGEVQPFIPNIIYGITALLGGSAALFLPETLNQPLPETIEDLENWSLRAKKPKQEPEVEKASQRIPLQPHGPGLGSS | – | – | – | – | – | 2.22
